Assay results taken from US8877452B2, “Nitrite-reductase (NIRB) as potential anti-tubercular target and a method to detect the severity of tuberculosis disease” (priority 2013, dated 2014).
Where two headings read alike, the source gives them in different places.

Key:
[1] = tested on: Mycobacterium tuberculosis in THP-1 macrophage; assay type: cell-based
THP-1 macrophages = assay: Cytotoxic effect on THP-1 macrophages, DAPI fluorescence microscopy; assay type: cell-based, Human; details: 100 μM; 10 days of treatment; compared with untreated control
Procedure: The THP1 macrophages were treated with 100 μM of p-HMB (Inhibitor) and incubated for 10 days and then stained with DAPI dye before taking pictures under a fluorescent microscope. The control cells were treated with the vehicle only under identical conditions.
THP-1 macrophage cells were grown on cover slip in 8 well microplates and washed twice with chilled methanol followed by staining with 4′,6-diamidino-2-phenylindole (DAPI) at final concentration of 300 nM. Macrophage cells were kept for 15 min at room temperature under dark condition. After incubation, cells were washed three times with distilled water and analyzed under the fluorescence microscope (Leitz Wetzlar model, Germany) at 350 nm excitation and 450 nm emission wavelengths (400×) using ‘A’ filter.
To investigate the host THP-1 macrophage cells condition due to its exposure to p-HMB inhibitor before considering its effective and specific inhibition of bacilli in macrophage infection models, fluorescence microscopic picture of THP-1 cells treated with p-HMB (100 μM) was compared with the untreated control after staining with DAPI (4′,6-diamidino-2-phenylindole). Fluorescence images were taken after 10th day of inhibitor treatment.

[2] = tested on: Mycobacterium tuberculosis

SMILES	decrease in intracellular viable bacilli count compared to control (without inhibitor) [1] [log difference]	cytotoxic effect on macrophage (nuclear integrity, DAPI staining) (THP-1 macrophages)	decrease in intracellular viable bacilli count compared to control (without inhibitor) ([1]; […], cell count on 10th day PI, THP-1 macrophages) [log difference]	reduction of bacilli count ([1]; in-vitro and ex-vivo conditions (summary statement)) [log cfu]	cell count reduction compared to bacilli grown under ammonia [2] [log difference]
[N-]=[N+]=[N-] [Azide]	~1.5				
CS(=N)(=O)CC[C@H](N)C(=O)O (stereo partly drawn) [L-MSO, L-methionine sulfoximine]	~2.5				
O=C(O)c1cc[c]([Hg][OH])cc1 [p-HMB, para-hydroxy mercuric benzoate]		without exhibiting any cytotoxic effects	~2	~2	~2.5
